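How tested: cells in 96-well plates exposed to compound for 48 hours at five concentrations. The concentration for 50% growth inhibition is given as GI50. TGI marks complete inhibition of growth.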
What was measured:
Test in all cases: NCI anticancer screen, dose series, 48 h
SF-295 CNS = tested on: SF-295 CNS
MOLT-4 leukemia = tested on: MOLT-4 leukemia
OVCAR-4 ovarian = tested on: OVCAR-4 ovarian
HOP-62 NSCLC = tested on: HOP-62 NSCLC
SNB-19 CNS = tested on: SNB-19 CNS
M14 melanoma = tested on: M14 melanoma
UO-31 renal = tested on: UO-31 renal
MDA-MB-231 breast = tested on: MDA-MB-231 breast
SW-620 colon = tested on: SW-620 colon
A498 renal = tested on: A498 renal

Structure (SMILES) | TGI (SF-295 CNS) [µM] | TGI (MOLT-4 leukemia) [µM] | TGI (OVCAR-4 ovarian) [µM] | TGI (HOP-62 NSCLC) [µM] | TGI (SNB-19 CNS) [µM] | TGI (M14 melanoma) [µM] | TGI (UO-31 renal) [µM] | TGI (MDA-MB-231 breast) [µM] | TGI (SW-620 colon) [µM] | TGI (A498 renal) [µM] | GI50 (SF-295 CNS) [µM] | GI50 (MOLT-4 leukemia) [µM] | GI50 (OVCAR-4 ovarian) [µM] | GI50 (HOP-62 NSCLC) [µM] | GI50 (SNB-19 CNS) [µM] | GI50 (M14 melanoma) [µM] | GI50 (UO-31 renal) [µM] | GI50 (MDA-MB-231 breast) [µM] | GI50 (SW-620 colon) [µM] | GI50 (A498 renal) [µM]
COC(=O)C1CC23C4=C(CCC41)CCC1CN4CC(C)C(CC(OC(C)=O)C12COC(C)=O)C43O (configuration not stated) | > 100 | > 100 | > 100 | > 100 | > 100 | > 100 | > 100 | > 100 | > 100 | > 100 |  |  |  |  |  |  |  |  |  | 
O/C(=C\c1nc2ccccc2nc1/C=C(\O)c1ccc(F)cc1)c1ccc(F)cc1 |  | > 100 | > 100 | > 100 | > 100 | > 100 | > 100 | > 100 | > 100 | > 100 |  |  |  |  |  |  |  |  |  | 
Cn1c2[n+](c3nc(N)[nH]c(=O)c31)C1OC(C2)C(O)C1O (configuration not stated) | > 100 | > 100 | > 100 | > 100 | > 100 | > 100 | > 100 |  | > 100 | > 100 |  |  |  |  |  |  |  |  |  | 
Cc1ccc2nc(-c3ccc(NC(=O)c4ccc(N)cc4)c(S(=O)(=O)O)c3)sc2c1 | > 100 | > 100 | > 100 | > 100 | > 100 | > 100 | > 100 | > 100 | > 100 | > 100 |  |  |  |  |  |  |  |  |  | 
O=C(Nc1ccc(-n2ccc3c(NC(=O)c4ccccc4)nccc32)cc1)Nc1cccc(C(F)(F)F)c1 | 18.8 | 10.9 | 10.5 | 19.1 | 26.8 | 15.7 | 31.7 | 18.1 | 18.9 | 21 | 3.75 | 2.65 | 2.65 | 5.65 | 11.1 | 3.83 | 13.4 | 4.65 | 4.96 | 6.39
CCOCC(=O)N(C)c1cccc2c3c(n(C)c12)CCCCC3 | > 100 | > 100 | > 100 | > 100 | > 100 |  |  |  | > 100 | > 100 |  |  |  |  |  |  |  |  |  | 
CS(C)(=O)=Nn1c(=O)n2n(c1=O)C1c3ccccc3C2c2ccccc21 | > 100 | > 100 |  | > 100 | > 100 | > 100 | > 100 | > 100 | > 100 | > 100 |  |  |  |  |  |  |  |  |  | 
N#Cc1ccccc1C#C/C=C\C#Cc1ccccc1N | 5.01 | > 100 | > 100 |  | > 100 | 11.3 | > 25.7 | 8.37 | > 100 | 94.1 | 1.28 | 3.68 | 16.1 |  | 7.17 | 0.243 | 4.79 | 2.13 | 3.76 | 34.9
O=C1/C(=C/c2[nH]ncc2-c2ccc(Cl)cc2)C(=O)N(c2ccccc2)C1c1ccccc1 (configuration not stated) | 50.7 | 41 | 96.5 | 63.2 | > 100 | 26 | 58.7 | 42.6 | 45.2 | 69.6 |  |  |  |  |  |  |  |  |  | 
O=S(=O)(O)c1ccc2c(N=Nc3ccc(N=Nc4ccccc4)cc3)c(O)c(S(=O)(=O)O)cc2c1 | > 100 | > 100 | > 100 | > 100 | > 100 | > 100 | > 100 | > 100 | > 100 |  |  |  |  |  |  |  |  |  |  | 
O=C1C2Cc3c(n(C(=O)c4ccccc4)c4ccccc34)CC2C(=O)N1c1ccc(Nc2ccc(N3C(=O)C4Cc5c(n(C(=O)c6ccccc6)c6ccccc56)CC4C3=O)cc2)cc1 (configuration not stated) | > 100 | > 100 | > 100 | > 100 | > 100 | > 100 | > 100 | > 100 |  | > 100 |  |  |  |  |  |  |  |  |  | 
Cc1cc(C)c2c(=O)n(CC(O)CN3CCN(CCOCCO)CC3)sc2n1 (configuration not stated) | > 100 | 73.5 | 34.5 | 70.6 | > 100 | 33.5 | 47.8 | 37.6 | > 100 | 38.9 |  |  |  |  |  |  |  |  |  | 
CC1=C[C@@H](C)C[C@]2(C)CC[C@H](O2)[C@]23CC[C@](CO)(C[C@H](O2)[C@@H]2O[C@@](C)(CC2=O)[C@@H](O)[C@H]2CC[C@@]4(CCC[C@@H](O4)[C@H](C)C(=O)O[C@H]4C[C@H]([C@]5(O)OCC[C@H](C)[C@@H]5O)O[C@H]4C=C1)O2)O3 | > 10 | > 10 | > 10 | 0.041 |  | > 10 | 0.207 | 0.217 | > 10 | 0.0156 |  |  |  |  |  |  |  |  |  | 
Nc1nnc(CCC(=O)Nc2cc(Cl)ccc2Cl)n1N | > 100 | > 100 | > 100 | > 100 | > 100 | > 100 | > 100 |  | > 100 | > 100 |  |  |  |  |  |  |  |  |  | 
Nc1cc(S(=O)(=O)O)cc2ccc(S(=O)(=O)O)cc12 | > 100 |  | > 100 | > 100 | > 100 | > 100 | > 100 | > 100 | > 100 | > 100 |  |  |  |  |  |  |  |  |  | 
O=C(/C=C1\N=C(c2ccccc2)N(c2nc3c(Cl)cc(Cl)cc3s2)C1=O)/C=C/c1ccccc1 | > 100 | > 100 | > 100 | > 100 | > 100 | > 100 | > 100 | > 100 | > 100 | > 100 |  |  |  |  |  |  |  |  |  | 
COc1cccc(/C=N/[N-]C(N)=O)c1[O-].[Ni+2].[OH3+] | 2.36 | 1.58 | 1.01 | 2.52 | 1.99 | 2.08 | 2.09 |  | 0.371 | 3.15 |  |  |  |  |  |  |  |  | 0.135 | 

Reference: PubChem BioAssay (NCI)
